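48-hour exposure; five concentrations; linearly interpolated endpoints. GI50: concentration for 50% inhibition of growth.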 The source made the active and inactive calls. Rule as the data show it: active = GI50 up to about 1.1 µM and inactive = higher.
What was measured:
Experiment in all cases: inhibition of tumour cell growth, NCI panel, 48 h
[1] = system: 786-0
[2] = system: A498
[3] = system: IGROV-1
[4] = system: K562
[5] = system: LOX IMVI
[6] = system: MCF7
[7] = system: Malme-3M
[8] = system: NCI-H226
[9] = system: NCI-H23
[10] = system: OVCAR-5
[11] = system: OVCAR-8
[12] = system: PC-3
[13] = system: RXF 393
[14] = system: SF-295
[15] = system: SK-MEL-28
[16] = system: SK-OV-3
[17] = system: SN12C
[18] = system: SW-620
[19] = system: UACC-62
[20] = system: RPMI-8226

Measured: GI50

CC1(C)CC(=O)c2c([nH]c(=S)c(C#N)c2-c2ccc(Br)cc2)C1
inactive: [1] 78.5 µM | [2] 54 µM | [3] 62.5 µM | [4] 43.4 µM | [5] 57.5 µM | [6] 40.7 µM | [7] 60.7 µM | [8] 46.8 µM | [9] 51.1 µM | [10] > 100 µM | [11] 49.9 µM | [12] 30.4 µM | [13] 33.7 µM | [14] 35.7 µM | [15] 44.1 µM | [16] > 100 µM | [17] 48.9 µM | [18] 46.9 µM | [19] 32.7 µM

CN(C)CCSc1cc(-c2ccccc2)c2ccccc2n1
inactive: [1] 10.8 µM | [2] 16 µM | [3] 12.9 µM | [4] 2.09 µM | [5] 10.4 µM | [6] 13.2 µM | [7] 10.8 µM | [8] 16.6 µM | [9] 10 µM | [10] 13.4 µM | [11] 19.1 µM | [12] 12.2 µM | [20] 17.3 µM | [13] 3.14 µM | [14] 12.6 µM | [15] 4.7 µM | [16] 3.91 µM | [17] 15 µM | [18] 6.14 µM | [19] 2.59 µM

C[C@H](NC1=C(Cl)C(=O)c2c(O)ccc(O)c2C1=O)C(=O)Nc1ccc([N+](=O)[O-])cc1
inactive: [1] 1.6 µM | [2] 2.39 µM | [3] 2.5 µM | [4] 10 µM | [6] 1.75 µM | [7] 1.19 µM | [8] 1.91 µM | [9] 2.02 µM | [10] 1.77 µM | [11] 2.37 µM | [12] 3.41 µM | [20] 1.84 µM | [13] 1.56 µM | [14] 1.89 µM | [15] 2.03 µM | [16] 6.89 µM | [17] 1.6 µM | [18] 3.05 µM | [19] 2.4 µM

Cc1cccc(N2C(=O)C3c4[nH]c5ccccc5c4C4CCC(C(C)(C)C)CC4C3C2=O)c1C (stereo not drawn)
inactive: [1] 38.7 µM | [2] > 100 µM | [3] > 100 µM | [4] > 100 µM | [5] > 100 µM | [6] > 100 µM | [7] > 100 µM | [8] > 100 µM | [9] > 100 µM | [10] > 100 µM | [11] 38.9 µM | [12] > 100 µM | [20] > 100 µM | [13] > 100 µM | [14] > 100 µM | [16] > 100 µM | [17] 78.7 µM | [18] 40 µM | [19] > 100 µM

CCCN(C(=O)c1c(Cl)nnc(Cl)c1C(=O)c1cc(Cl)nnc1Cl)c1cc(Cl)nnc1Cl
inactive: [1] 5.46 µM | [2] 15.5 µM | [3] 7.52 µM | [4] 4.19 µM | [5] 5.47 µM | [6] 4.49 µM | [8] 18.5 µM | [9] 5.77 µM | [10] 21 µM | [11] 2.29 µM | [12] 6.61 µM | [20] 3.65 µM | [13] 2.86 µM | [14] 19.9 µM | [15] 12.9 µM | [16] 33.3 µM | [17] 12.4 µM | [18] 6.67 µM | [19] 10.6 µM

Cc1ccc(/N=C2/C(c3ccccc3)=C(SC3=C(c4ccccc4)/C(=N/c4ccc(C)cc4)c4ccccc43)c3ccccc32)cc1
inactive: [1] 10.4 µM | [2] 15.2 µM | [3] 17.1 µM | [4] 32.4 µM | [5] 67.6 µM | [6] 27.1 µM | [8] 24.4 µM | [9] 14 µM | [10] 39 µM | [11] 9.59 µM | [12] 55 µM | [20] 84.7 µM | [13] 12.4 µM | [14] 12.5 µM | [15] > 39.7 µM | [16] 15 µM | [17] 20.9 µM | [18] > 100 µM | [19] 16.7 µM

O=S(=O)(c1cc(Cl)ccc1Cl)N1CCN(c2cccc(Cl)c2)CC1
inactive: [1] > 100 µM | [2] > 100 µM | [3] > 100 µM | [4] 67 µM | [5] > 100 µM | [6] > 100 µM | [7] > 100 µM | [8] > 100 µM | [9] > 100 µM | [10] > 100 µM | [11] > 100 µM | [12] > 100 µM | [20] > 100 µM | [13] > 100 µM | [14] > 100 µM | [15] > 100 µM | [17] > 100 µM | [18] > 100 µM

O=C(/C=N/O)Nc1cc(Cl)c(Cl)cc1Cl
inactive: [1] 37.4 µM | [2] 16.6 µM | [3] 20.7 µM | [4] 25.6 µM | [5] 33.8 µM | [6] 22.6 µM | [7] 35.7 µM | [9] 29.6 µM | [10] 42.1 µM | [11] 23.8 µM | [12] 33.2 µM | [20] 27.9 µM | [13] 31.5 µM | [14] 27 µM | [15] 41 µM | [16] 27.8 µM | [17] 23.9 µM | [18] 35.7 µM | [19] 25.9 µM

CCCN1C(=O)CC(C)N(Cc2ccccc2Cl)C1=S (stereo not drawn)
inactive: [1] 36.4 µM | [2] 14.2 µM | [3] 33.4 µM | [5] 22.3 µM | [6] 26.5 µM | [7] 25.4 µM | [9] 23.5 µM | [10] 50.2 µM | [11] 27.2 µM | [12] 22.8 µM | [20] 24.8 µM | [13] 3.9 µM | [14] 31.9 µM | [15] 22.9 µM | [16] 31.9 µM | [17] 30.6 µM | [18] 30.8 µM | [19] 19.1 µM

Cc1[nH]n(-c2nc(O)c(C)c(=O)[nH]2)c(=O)c1CCO
inactive: [1] > 100 µM | [2] > 100 µM | [3] > 100 µM | [4] > 100 µM | [6] > 100 µM | [7] > 100 µM | [8] > 100 µM | [9] > 100 µM | [10] > 100 µM | [11] > 100 µM | [12] > 100 µM | [20] > 100 µM | [13] 22.6 µM | [14] > 100 µM | [15] > 100 µM | [16] > 100 µM | [17] > 100 µM | [18] > 100 µM | [19] > 100 µM

COc1ccc(/C=C/C(=O)N[C@@H]2C(=O)N3[C@@H]2SC(C)(C)[C@@H]3C(=O)O)cc1OC
inactive: [1] > 100 µM | [2] > 100 µM | [4] > 100 µM | [5] > 100 µM | [6] > 100 µM | [8] > 100 µM | [9] > 100 µM | [10] > 100 µM | [11] > 100 µM | [12] > 100 µM | [20] > 100 µM | [13] > 100 µM | [14] > 100 µM | [15] > 100 µM | [16] > 100 µM | [17] > 100 µM | [18] > 100 µM | [19] > 100 µM

CC(C)(CO)NC(=O)Nc1c(C(F)(F)F)cc(-c2ccccc2)[nH]c1=O
inactive: [1] > 100 µM | [2] > 100 µM | [3] > 100 µM | [4] > 100 µM | [5] > 100 µM | [6] > 100 µM | [7] > 100 µM | [8] > 100 µM | [9] > 100 µM | [10] > 100 µM | [11] > 100 µM | [12] > 100 µM | [13] > 100 µM | [14] > 100 µM | [15] > 100 µM | [16] > 100 µM | [17] > 100 µM | [18] > 100 µM | [19] > 100 µM

COc1ccc(NC(=O)c2cc(NC(=O)/C=C/c3ccccc3)c(OC)c(OC)c2)cc1
inactive: [1] 11.7 µM | [2] 53.6 µM | [4] 13.4 µM | [5] 4.73 µM | [6] 3.69 µM | [7] 18.2 µM | [8] 6.64 µM | [9] > 100 µM | [10] 40.7 µM | [12] 6.41 µM | [20] 3.83 µM | [13] 11.2 µM | [14] 17.4 µM | [15] 20.4 µM | [16] 51.5 µM | [17] 6.3 µM | [18] 6.81 µM | [19] 3.9 µM

Cc1ccc(OCCn2cc(Nc3ccccc3)c(=O)[nH]c2=O)cc1
inactive: [1] > 100 µM | [2] > 100 µM | [3] > 100 µM | [4] > 100 µM | [5] > 100 µM | [6] > 100 µM | [7] > 100 µM | [8] > 100 µM | [9] > 100 µM | [10] > 100 µM | [11] > 100 µM | [12] > 100 µM | [20] > 100 µM | [13] > 100 µM | [14] > 100 µM | [15] > 100 µM | [17] > 100 µM | [18] > 100 µM | [19] > 100 µM

From ChEMBL document CHEMBL1201862, “PubChem BioAssay data set” (2004)
